Assay results: US8993721B2, “Peptides for targeting apoptotic cells and uses thereof” (Kyungpook National University Industry-Academic Cooperation …, priority 2008, dated 2015)
“Also recorded” adds a separate entry of the source. Where no end group is shown, it is not given here.

Legend:
[1] = test system: apoptotic cells in A549 tumor tissue xenotransplanted under the skin of nude mouse; assay: Histological analysis of tumor targeting (Example 2); format: in vivo; conditions: fluorescein-labeled peptide, tail vein; for binding to cells stained by TUNEL (apoptotic cells) in tumor tissue: merge of peptide fluorescence and TUNEL
Method: All animal experiments were performed in accordance with the guideline of the Institutional Animal Care and Use Committee. For tumor xenotransplantation, human lung cancer cells (A549, 1×10^7 cells) suspended in RMPI-1640 medium was subcutaneously injected at the right upper or lower limb of a 6-week-old male BALB/c nude mouse (Hyochang Science). Then, 3 weeks were given for the tumor to grow to a size of 0.5 to 1 cm. The A549 cell line used in the experiment was cultured in RMPI-1640 medium containing 10% fetal bovine serum (FBS) in which antibiotics (penicillin and streptomycin) were included. Subculturing was performed every 3 or 4 days.
The peptides used in the present invention were fluorescein-attached form at the N-terminal. They were synthesized according to the standard Fmoc technique and then isolated through HPLC. The peptide synthesis was performed by an expertise company (Peptron).
The peptide of the present invention (ApoPep-1) or a control peptide (amino acid sequence: NSSSVDK), labeled with fluorescein, was injected into the tail vein of a mouse under isoflurane anesthesia, to a final concentration of 50 μM, and 2 hours was given for circulation.
For histological analysis, the mouse was anesthetized and the abdomen was cut open. After sequentially perfusing phosphate-buffered saline (PBS) and 4% paraformaldehyde through the heart, tumor tissues and organs were removed. Each tissue was cryosected and the peptide of the present invention was observed under a fluorescence microscope (Zeiss). Apoptosis in the tumor tissue was confirmed by TUNEL ([…] terminal deoxynucleotidyl transferase-mediated dUTP nick-end labeling) assay according to the instructions of the manufacturer (Chemicon). Fibrinogen staining was performed by immunohistochemistry using anti-fibrinogen antibody (Abcam) and secondary antibody labeled with Alexa 568, a red fluorescent reagent.

[2] = test system: etoposide-treated apoptotic A549 cells; assay: FACS analysis of binding to apoptotic cells (Example 3-3); format: cell-based, human
Method: As another way of confirming the binding of the peptide of the present invention to apoptotic cells, apoptotic cells were treated with the peptide of the present invention, labeled with fluorescein, and the binding was confirmed through FACS analysis. […] The apoptotic cells or normal cells were reacted with ApoPep-1 (5 μM), ApoPep-2 (10 μM) or a control peptide at the same concentrations, labeled with fluorescein, at 4° C. for 1 hour. Further, the cells were reacted with fluorescein-labeled annexin V at room temperature for 15 minutes. After staining the cells with propodium iodide (PI) simultaneously, followed by washing with PBS, FACS analysis was performed using a FACS instrument (Becton Dickinson).

[3] = test system: brain of stroke rat (middle cerebral artery occlusion/reperfusion); assay: Molecular imaging of stroke (Example 6); format: in vivo
Method: A stroke model was established by occluding the left middle cerebral artery of a rat for 2 hours, followed by reperfusion. Two hours after the reperfusion, the peptide having an amino sequence represented by SEQ ID NO: 1 (ApoPep-1) and a control peptide, labeled with Cy7.5 NIR fluorescence, was intravenously injected at a final concentration of 50 μM to the stroke rat and a normal rat through the tail vein, under isoflurane anesthesia. One and three hours after the intravenous injection, NIR images of the head portion were obtained. Further, NIR fluorescence images of the brains of the rats of the 3 hour group were obtained.

[4] = test system: A549 tumor xenotransplanted in nude mice; assay: In vivo fluorescence imaging of targeting of apoptotic cells in tumor (Example 4-1); set-up: species or system mouse
Method: Nude mice in which tumor was xenotransplanted using A549 cells were prepared as in Example <2-1>. The mice were grouped into a doxorubicin (Sigma) treated group (+Dox) and untreated group (−Dox). The treated group was treated with doxorubicin (10 mg/kg) 3 times, with an interval of 48 hours, a week prior to injection of the peptide. At the tail vein of each mouse, the peptide of the present invention or a control peptide, labeled with fluorescein, was injected at a final concentration of 50 μM, under isoflurane anesthesia. Following the injection, in vivo fluorescence images were obtained every hour, from 1 hour to 6 hours after the injection, using an Optix exPlore instrument (GE Healthcare). The images were standardized using the software provided with the instrument.
Further, when the tumor grew considerably (1 cm or larger in diameter), the peptide of the present invention was injected at the same concentration as above, without doxorubicin treatment, and in vivo fluorescence images were obtained at every given time using an IVIS fluorescence imaging system (Chemipro).

[5] = test system: apoptotic A549 cells; assay: Competitive inhibition of binding to apoptotic cells by annexin V treatment (Example 3-2); format: cell-based, human; conditions: annexin V 1000 μM pre-treatment
Method: In order to further investigate the binding properties of the peptide of the present invention (ApoPep-1) to apoptotic cells, competitive inhibition by annexin V was measured. To this end, first, apoptotic A549 cells were pre-treated with annexin V, not labeled with fluorescence, at concentrations of 0, 200 and […]. Then, after reacting the cells with fluorescence-labeled annexin V under the same condition as described in Example <3-1>, the binding of the cells was observed under a fluorescence microscope.
Further, apoptotic A549 cells were pre-treated with annexin V, not labeled with fluorescence, at a concentration of 1000 μM. Then, after reacting the cells with fluorescence-labeled peptide under the same condition as described in Example <3-1>, the binding of the cells was observed under a fluorescence microscope.

[6] = test system: A549 tumor xenotransplanted in nude mice; assay: In vivo fluorescence imaging of targeting of apoptotic cells in tumor (Example 10); set-up: species or system mouse
Method: Nude mice in which tumor was xenotransplanted using A549 cells were prepared as in Example <8-1>. The mice were grouped into a doxorubicin (Sigma) treated group (Dox+) and untreated group (Dox−). The treated group was treated with doxorubicin (5 mg/kg) one time, 12 hours prior to injection of the peptide. At the tail vein of each mouse, the polypeptide of the present invention or a control peptide, labeled with fluorescein or Cy7.5 near-infrared fluorescent dye, was injected at a final concentration of 50 μM, under isoflurane anesthesia. Following the injection, in vivo fluorescence images were obtained 0.5 hours and every hour, from 1 hour to 4 hours, after the injection, using an Optix exPlore instrument (ART). The images were standardized using the software provided with the instrument.

[7] = etoposide 15 hours, peptide 5 μM, 4° C. 1 hour
[8] = Cy7.5-labeled peptide 50 μM i.v.

For “CQRPPR (also: fluorescein or Cy7.5 label) [ApoPep-1, peptide CQRPPR screened for macrophages; used fluorescein- or Cy7.5-labeled]”, the “peptide fluorescence observed in the tumor tissue” value ([1]; 50 μM final, 2 hours circulation, cryosections) was “observed in the tumor tissue”, the “binding to cells not stained by TUNEL (coagulation necrotic site, fibrinogen staining)” value ([1]; 50 μM, 2 hours) was “also binds to the cells not stained by TUNEL” and the “binding to cells stained by TUNEL (apoptotic cells) in tumor tissue” value ([1]; 50 μM, 2 hours) was “binds to the cells stained by TUNEL”. For the same substance, the “binding to normal cells (FACS)” value ([2]; A549 cells without etoposide, 4° C. 1 hour) was “almost nonexistent”, the “cells at the early stage of apoptosis bound to the peptide” value [2, 7] was 90.3% and the “cells at the later stage of apoptosis bound to the peptide” value [2, 7] was 7.2%. For the same substance, the “fluorescence of isolated brain of stroke rat” value ([3]; 3 hour group, left middle cerebral artery occluded) was “fluorescence was observed at the left hemisphere”, the “NIR fluorescence at the head portion of the normal rat” value [3, 8] was “almost nonexistent” and the “NIR fluorescence at the head portion of the stroke rat at 3 hours” value [3, 8] was “very strong fluorescence”. For the same substance, the “NIR fluorescence at the head portion of the stroke rat at 1 hour” value ([3]; Cy7.5-labeled peptide 50 μM i.v., 2 hours after reperfusion) was “NIR fluorescence was observed”, the “time until which the tumor fluorescence signal was detected” value ([4]; doxorubicin treated group, fluorescein-labeled peptide 50 μM) was 5 h and the “time at which the fluorescence signal from the tumor tissue was most strongly detected” value ([4]; doxorubicin treated group, fluorescein-labeled peptide 50 μM, tail vein) was 2 h. For the same substance, the “fluorescence signal from the tumor, doxorubicin untreated group” value ([4]; −Dox, fluorescein-labeled peptide 50 μM) was “weakly detected or almost nonexistent” and the “binding of fluorescence-labeled peptide after pre-treatment with unlabeled annexin V” value [5] was “not inhibited”.
“CSVAPR (also: fluorescein or Cy7.5 label) [ApoPep-2, peptide CSVAPR screened for endothelial cells; used fluorescein- or Cy7.5-labeled]” was tested, and the “binding to cells stained by TUNEL (apoptotic cells) in tumor tissue” value ([1]; 50 μM, 2 hours) was “binds to the apoptotic cells in the tumor tissue”, the “binding to apoptotic cells versus normal cells (FACS)” value ([2]; etoposide 20 hours, peptide 10 μM at 4° C. or 37° C. for 1 hour) was “bound better to the apoptotic cells than to the normal cells” and the “ex vivo fluorescence signal from the kidney” value ([6]; 4 hours after peptide injection, all the groups, renal clearance) was “strong”. The “ex vivo fluorescence signal from the isolated tumor, doxorubicin treated group” value ([6]; 4 hours after peptide injection, compared to Dox− ApoPep-2 and Dox+ control peptide) was “strong”, the “time at which the fluorescence signal from the tumor tissue was most strongly detected” value ([6]; Cy7.5-labeled, doxorubicin treated group (5 mg/kg, 12 hours before)) was 2 h and the “fluorescence signal from the tumor, doxorubicin treated group” value ([6]; Dox+, Cy7.5-labeled peptide 50 μM) was “targeted the tumor tissue”. For the same substance, the “fluorescence signal from the tumor, doxorubicin untreated group” value ([6]; Dox−, Cy7.5-labeled peptide 50 μM) was “targeting was not observed; also recorded: weakly detected”, the “time from which fluorescence from the tumor was detected” value ([6]; fluorescein-labeled, large tumor (1 cm or larger in diameter), no agent) was 2 h and the “time from which fluorescence from the tumor was detected” value ([4]; large tumor (1 cm or larger in diameter), no doxorubicin, IVIS) was 2 h. For the same substance, the “fluorescence signal from the tumor at 5 hours” value ([4]; large tumor (1 cm or larger), no doxorubicin) was “strong fluorescence signal”.
